# Counter-ions that a name gives are not always drawn. Like-named read-outs stand apart in the source and are kept apart here. Marks after values point to notes of the source that are not given here.
# B1: mAb114 (antibody, chains of the INN, looked up, V domains shown)
# VH: EVQLVESGGGLIQPGGSLRLSCAASGFALRMYDMHWVRQTIDKRLEWVSAVGPSGDTTYADSVKGRFAVSRENAKNSLSLQMNSLTAGDTAIYYCVRSDRGVAGLFDSWGQGILVTVSS
# VL: DIQMTQSPSSLSASVGDRITITCRASQAFDNYVAWYQQRPGKVPKLLISAASALHAGVPSRFSGSGSGTHFTLTISSLQPEDVATYYCQNYNSAPLTFGGGTKVEIK
# Experiments:
# [1] = tested on: Norovirus (human norovirus, GT1 strain); assay: microbe, parasite or virus in culture; format: cell-based; design: SI90: unit not given beside the values
# EBOV in HeLa cells = format: cell-based, Ebola virus
# Herpes Simplex Virus 1 = assay: microbe, parasite or virus in culture; format: cell-based; design: SI50 / SI90: unit not given beside the values
# Vaccinia Virus = assay: microbe, parasite or virus in culture; format: cell-based; design: SI50 / SI90: unit not given beside the values
# Chikungunya virus = assay: microbe, parasite or virus in culture; format: cell-based; design: SI50: unit not given beside the values
# Dengue Virus 2 = assay: microbe, parasite or virus in culture; format: cell-based; design: SI50: unit not given beside the values
# [2] = tested on: Ebola virus (Zaire strain); assay: microbe, parasite or virus in culture; format: cell-based; design: SI50: unit not given beside the values
# Influenza A virus H1N1 = assay: microbe, parasite or virus in culture; format: cell-based; design: SI50: unit not given beside the values
# MERS coronavirus = assay: microbe, parasite or virus in culture; format: cell-based; design: SI50: unit not given beside the values
# Poliovirus 3 = assay: microbe, parasite or virus in culture; format: cell-based; design: SI50: unit not given beside the values
# [3] = tested on: Respiratory synactial virus; assay: organism not typed; format: cell-based; design: SI50: unit not given beside the values
# Rift Valley fever virus = assay: microbe, parasite or virus in culture; format: cell-based; design: SI50: unit not given beside the values
# Tacaribe virus = assay: microbe, parasite or virus in culture; format: cell-based; design: SI50: unit not given beside the values
# [4] = tested on: Venezuelian equine encephalitis virus; assay: organism not typed; format: cell-based; design: SI50: unit not given beside the values
# West Nile virus = assay: microbe, parasite or virus in culture; format: cell-based; design: SI50: unit not given beside the values
# Yellow Fever virus = assay: microbe, parasite or virus in culture; format: cell-based; design: SI50: unit not given beside the values
# Zika virus [5] = assay: microbe, parasite or virus in culture; format: cell-based; design: SI50: unit not given beside the values
# Zika virus [6] = assay: microbe, parasite or virus in culture; format: cell-based; design: SI50: unit not given beside the values; remark: listed apart in the source
# Murine norovirus = assay: microbe, parasite or virus in culture; format: cell-based; design: SI50 / SI90: unit not given beside the values
# Human cytomegalovirus = assay: microbe, parasite or virus in culture; format: cell-based; design: SI50 / SI90: unit not given beside the values
# Hepatitis C virus = assay: microbe, parasite or virus in culture; format: cell-based; design: SI50 / SI90: unit not given beside the values
# Hepatitis B virus = assay: microbe, parasite or virus in culture; format: cell-based; design: SI50 / SI90: unit not given beside the values
# cytokines and chemokines = tested on: cytokines and chemokines; design: species or system mice; conditions: mouse, in vivo
# [7] = pH 7.4
# [8] = mouse, in vivo
# Plasmodium falciparum = conditions: read-out: in vitro EC50; cited from earlier work
# T. cruzi = conditions: mouse, in vivo; cited from earlier work
# in vivo [9] = conditions: both, BALB/c, mouse, ip
# in vivo [10] = conditions: BALB/c, mouse, ip
# in vitro [11] = conditions: dog
# in vitro [12] = conditions: African green monkey
# in vitro [13] = conditions: African green monkey; remark: listed apart in the source
# in vitro [14] = conditions: mouse
# physchem = conditions: 20 °C, pH 7.4, aqueous buffer, kinetic from dmso stock
# in vitro [15] = conditions: mouse, microsomes
# in vitro [16] = conditions: guinea pig, microsomes
# in vitro [17] = conditions: non-human primate, microsomes
# in vitro [18] = conditions: human, microsomes
# in vitro [19] = conditions: mouse, plasma, pH 7.4
# in vitro [20] = conditions: human, plasma, pH 7.4
# in vitro [21] = conditions: human, Caco-2, pH 7.4
# HeLa cells = conditions: cited from earlier work
# [22] = in vivo, cited from earlier work
# [23] = mouse, in vivo; cited from earlier work
# CYP1A2 = CYP1A2 (Homo sapiens, UniProt P05177); assay: biochemical
# Chain of CYP1A2 (P05177 whole entry): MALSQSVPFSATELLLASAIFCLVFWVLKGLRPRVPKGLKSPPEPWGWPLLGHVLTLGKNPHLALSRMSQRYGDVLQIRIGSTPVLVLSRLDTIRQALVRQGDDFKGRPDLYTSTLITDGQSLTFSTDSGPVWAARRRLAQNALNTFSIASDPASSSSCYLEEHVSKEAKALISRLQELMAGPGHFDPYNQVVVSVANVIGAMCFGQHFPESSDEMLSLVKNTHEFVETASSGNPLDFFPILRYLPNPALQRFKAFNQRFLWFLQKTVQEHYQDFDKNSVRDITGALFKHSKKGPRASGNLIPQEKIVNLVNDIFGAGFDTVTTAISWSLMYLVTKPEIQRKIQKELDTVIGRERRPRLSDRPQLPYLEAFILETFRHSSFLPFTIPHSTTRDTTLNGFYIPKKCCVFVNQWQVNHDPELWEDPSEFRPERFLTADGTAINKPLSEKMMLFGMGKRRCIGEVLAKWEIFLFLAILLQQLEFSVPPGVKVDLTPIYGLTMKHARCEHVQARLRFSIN
# CYP2C9 = CYP2C9 (Homo sapiens, UniProt P11712); assay: biochemical
# Chain of CYP2C9 (P11712 whole entry): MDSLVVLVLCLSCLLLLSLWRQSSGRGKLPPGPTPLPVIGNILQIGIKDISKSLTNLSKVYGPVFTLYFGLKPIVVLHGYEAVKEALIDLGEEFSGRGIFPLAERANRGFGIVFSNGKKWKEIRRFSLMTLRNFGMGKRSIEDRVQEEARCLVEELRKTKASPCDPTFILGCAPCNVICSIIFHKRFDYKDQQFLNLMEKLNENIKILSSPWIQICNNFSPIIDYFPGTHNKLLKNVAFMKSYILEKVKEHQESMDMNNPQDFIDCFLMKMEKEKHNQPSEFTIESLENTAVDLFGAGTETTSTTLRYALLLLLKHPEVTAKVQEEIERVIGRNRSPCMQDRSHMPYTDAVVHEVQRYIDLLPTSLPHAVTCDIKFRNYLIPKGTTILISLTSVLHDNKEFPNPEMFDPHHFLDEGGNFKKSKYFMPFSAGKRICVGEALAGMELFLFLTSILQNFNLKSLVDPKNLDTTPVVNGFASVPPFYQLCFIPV
# CYP2C19 = CYP2C19 (Homo sapiens, UniProt P33261); assay: biochemical
# Chain of CYP2C19 (P33261 whole entry): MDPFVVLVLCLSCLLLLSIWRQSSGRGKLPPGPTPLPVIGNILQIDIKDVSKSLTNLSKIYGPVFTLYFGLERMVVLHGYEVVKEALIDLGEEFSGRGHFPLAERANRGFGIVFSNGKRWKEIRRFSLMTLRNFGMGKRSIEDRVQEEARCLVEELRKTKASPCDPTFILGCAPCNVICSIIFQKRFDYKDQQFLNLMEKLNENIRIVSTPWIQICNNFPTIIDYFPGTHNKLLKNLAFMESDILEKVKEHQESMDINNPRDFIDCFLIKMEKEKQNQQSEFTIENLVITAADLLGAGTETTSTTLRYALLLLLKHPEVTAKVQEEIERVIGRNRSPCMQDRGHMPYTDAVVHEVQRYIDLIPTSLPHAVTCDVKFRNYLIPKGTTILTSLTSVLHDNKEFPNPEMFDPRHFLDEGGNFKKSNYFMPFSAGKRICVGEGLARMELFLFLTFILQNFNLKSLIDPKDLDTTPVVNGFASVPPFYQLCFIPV
# CYP3A4 = CYP3A4 (Homo sapiens, UniProt P08684); assay: biochemical
# Chain of CYP3A4 (P08684 whole entry): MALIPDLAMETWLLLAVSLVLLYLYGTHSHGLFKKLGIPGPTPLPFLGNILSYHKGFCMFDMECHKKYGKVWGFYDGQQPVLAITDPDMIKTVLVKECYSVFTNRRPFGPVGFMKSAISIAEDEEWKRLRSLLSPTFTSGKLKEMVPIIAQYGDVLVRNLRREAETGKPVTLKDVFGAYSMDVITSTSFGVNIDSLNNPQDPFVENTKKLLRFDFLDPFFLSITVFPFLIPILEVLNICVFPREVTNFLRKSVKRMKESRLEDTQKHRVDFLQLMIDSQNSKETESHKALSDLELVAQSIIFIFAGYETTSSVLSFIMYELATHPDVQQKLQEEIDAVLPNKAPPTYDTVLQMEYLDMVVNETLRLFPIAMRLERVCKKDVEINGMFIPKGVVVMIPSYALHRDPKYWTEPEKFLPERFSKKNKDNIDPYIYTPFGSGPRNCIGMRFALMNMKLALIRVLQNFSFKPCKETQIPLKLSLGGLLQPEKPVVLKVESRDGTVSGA
# CYP2D6 = CYP2D6 (Homo sapiens, UniProt P10635); assay: biochemical
# Chain of CYP2D6 (P10635 whole entry): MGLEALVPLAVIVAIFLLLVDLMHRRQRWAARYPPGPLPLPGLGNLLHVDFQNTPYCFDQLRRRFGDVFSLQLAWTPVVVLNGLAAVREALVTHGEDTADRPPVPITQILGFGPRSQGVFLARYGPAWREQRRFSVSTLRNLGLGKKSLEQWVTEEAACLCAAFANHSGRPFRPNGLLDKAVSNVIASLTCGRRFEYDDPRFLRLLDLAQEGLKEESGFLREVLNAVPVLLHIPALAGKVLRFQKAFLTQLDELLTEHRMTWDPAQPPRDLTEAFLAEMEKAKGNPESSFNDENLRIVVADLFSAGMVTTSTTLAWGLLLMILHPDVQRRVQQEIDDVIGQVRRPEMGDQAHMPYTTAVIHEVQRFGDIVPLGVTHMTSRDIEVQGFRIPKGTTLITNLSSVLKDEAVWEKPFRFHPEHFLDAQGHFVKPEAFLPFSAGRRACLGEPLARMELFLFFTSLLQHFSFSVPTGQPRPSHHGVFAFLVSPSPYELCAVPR
# EBOV [24] = conditions: mouse, in vivo; cited from earlier work
# EBOV [25] = conditions: in vivo; cited from earlier work
# EBOV [26] = conditions: in vivo; cited from earlier work; remark: listed apart in the source
# [27] = Hepatitis B virus, HepG2 2.2.15
molecule,measurement,setting,value
C[C@@]1(O)[C@H](O)[C@@H](CO)O[C@H]1n1ccc(N)nc1=O [2’C-methyl cytidine],EC50,[1]; read-out: EC50,6.5 µM
same,CC50,HG23,> 300 µM
"COc1ccc2nc3cc(Cl)ccc3c(Nc3cc(CN4CCCC4)c(O)c(CN4CCCC4)c3)c2n1 [Pyronaridine, 4-[(7-Chloro-2-methoxybenzo[b][1, 5]naphthyridin-10-yl)amino]-2,6-bis(1-pyrrolidinylmethyl)phenol phosphate (1:4)]",SI,EBOV in HeLa cells,~ 3
same,SI50,Herpes Simplex Virus 1,<1
same,SI90,Herpes Simplex Virus 1,<1
same,EC50,"Herpes Simplex Virus 1; Human alphaherpesvirus 1, HFF",> 6 µM
same,EC90,"Herpes Simplex Virus 1; Human alphaherpesvirus 1, HFF",> 6 µM
same,SI50,Vaccinia Virus,<3
same,SI90,Vaccinia Virus,<3
same,EC50,"Vaccinia Virus; Orthopoxvirus vaccinia, HFF",> 1.2 µM
same,EC90,"Vaccinia Virus; Orthopoxvirus vaccinia, HFF",> 1.2 µM
same,SI50,Chikungunya virus,1
same,EC50,"Chikungunya virus; Chikungunya virus, Vero 76",3.2 µM
same,SI50,Dengue Virus 2,1
same,EC50,"Dengue Virus 2; Dengue virus, Vero 76",3.2 µM
same,SI50,[2],0
same,anti-EBOV activity (Zaire strain),[2],lack of antiviral activity
same,EC50,"[2]; Zaire ebolavirus, Vero 76",> 1.3 µM
same,SI50,Influenza A virus H1N1,1
same,EC50,"Influenza A virus H1N1; Influenza A virus, H1N1, MDCK",3.2 µM
same,SI50,MERS coronavirus,1
same,EC50,"MERS coronavirus; Middle East respiratory syndrome-related coronavirus, Vero 76",3.2 µM
same,SI50,Poliovirus 3,1
same,EC50,"Poliovirus 3; Enterovirus C, Vero 76",3.2 µM
same,SI50,[3],0
same,EC50,[3]; MA104,> 7.5 µM
same,SI50,Rift Valley fever virus,1
same,EC50,"Rift Valley fever virus; Rift Valley fever virus, Vero 76",3.2 µM
same,SI50,Tacaribe virus,0
same,EC50,"Tacaribe virus; Mammarenavirus tacaribeense, Vero",> 3.2 µM
same,SI50,[4],1.8
same,EC50,[4]; Vero 76,1.8 µM
same,SI50,West Nile virus,0
same,EC50,"West Nile virus; West Nile virus, Vero 76",> 24 µM
same,SI50,Yellow Fever virus,1
same,EC50,"Yellow Fever virus; Yellow fever virus, Vero 76",3.2 µM
same,SI50,Zika virus [5],1
same,EC50,"Zika virus [5]; Zika virus, Vero 76",3.2 µM
same,SI50,Zika virus [6],1
same,EC50,"Zika virus [6]; Zika virus, Huh-7",3.2 µM
same,SI90,[1],10
same,EC50,"[1]; Norovirus, GT1, HG23",3.5 µM
same,EC90,"[1]; Norovirus, GT1, HG23",9.7 µM
same,SI50,Murine norovirus,1
same,SI90,Murine norovirus,1
same,EC50,"Murine norovirus; Norwalk virus, RAW267.4",> 40 µM
same,EC90,"Murine norovirus; Norwalk virus, RAW267.4",> 40 µM
same,SI50,Human cytomegalovirus,<3
same,SI90,Human cytomegalovirus,<3
same,EC50,"Human cytomegalovirus; Human betaherpesvirus 5, HFF",> 1.2 µM
same,EC90,"Human cytomegalovirus; Human betaherpesvirus 5, HFF",> 1.2 µM
same,SI50,Hepatitis C virus,1
same,SI90,Hepatitis C virus,<1
same,EC50,"Hepatitis C virus; Hepatitis C virus, Huh-7",0.78 µM
same,EC90,"Hepatitis C virus; Hepatitis C virus, Huh-7",1.71 µM
same,SI50,Hepatitis B virus,<1
same,SI90,Hepatitis B virus,<1
same,EC50,Hepatitis B virus; [27],4.52 µM
same,EC90,Hepatitis B virus; [27],> 100 µM
same,IFN-α/β concentrations,cytokines and chemokines,below the level of detection
same,cytokine/chemokine levels over vehicle or naïve controls,cytokines and chemokines,did not elicit a statistically significant increase
same,abundance relative to parent drug (Mouse),[7],100%*
same,clinical observations in PK study,[8],ruffled fur and eye squinting
same,time of peak plasma levels,[8]; ip,0.25 and 1
same,EC50,Plasmodium falciparum,0.0135 µM
same,efficacy rate,T. cruzi,85%
same,MTD,in vivo [9],100 mg/kg
same,AUC(0-t),"in vivo [10]; female, 5 mg/kg",257 ng·h/mL
same,Cmax,"in vivo [10]; female, 5 mg/kg",54 ng/mL
same,Tmax,"in vivo [10]; female, 5 mg/kg",4.98 min
same,AUC(0-t),"in vivo [10]; female, 25 mg/kg",956 ng·h/mL
same,Cmax,"in vivo [10]; female, 25 mg/kg",160 ng/mL
same,AUC(0-t),"in vivo [10]; male, 5 mg/kg",192 ng·h/mL
same,Cmax,"in vivo [10]; male, 5 mg/kg",44.4 ng/mL
same,AUC(0-t),"in vivo [10]; male, 25 mg/kg",713 ng·h/mL
same,Cmax,"in vivo [10]; male, 25 mg/kg",115 ng/mL
same,AUC(0-inf),"in vivo [10]; male, 75 mg/kg",33900 ng·h/mL
same,AUC(0-t),"in vivo [10]; male, 75 mg/kg",33000 ng·h/mL
same,Cmax,"in vivo [10]; male, 75 mg/kg",982 ng/mL
same,half-life,"in vivo [10]; male, 75 mg/kg",146 h
same,CC50,in vitro [11],3.2 µM
same,CC50,in vitro [12],7.5 µM
same,CC50,in vitro [13]; CC50,3.2 µM
same,CC50,in vitro [13]; approximate CC50,~3 µM
same,CC50,in vitro [14],> 40 µM
same,solubility,physchem,168 µM
same,half-life,in vitro [15],2.88 h
same,microsomal CLint,in vitro [15],4 µL/min/mg
same,half-life,in vitro [16],0.74 h
same,microsomal CLint,in vitro [16],15.6 µL/min/mg
same,half-life,in vitro [17],2.33 h
same,microsomal CLint,in vitro [17],4.9 µL/min/mg
same,microsomal CLint,in vitro [18],4.1 µL/min/mg
same,fraction unbound,in vitro [19],0.035
same,fraction unbound,in vitro [20],0.049
same,Papp A→B,in vitro [21],6.46 ×10⁻⁶ cm/s
same,Papp B→A,in vitro [21],4.8 ×10⁻⁶ cm/s
same,efflux ratio,in vitro [21],0.74
same,CC50,HeLa cells,3.1 µM
same,t1/2,"[22]; human, po, 400 mg",241 h
same,volume of distribution,"[22]; human, po, 400 mg",41.2 L/kg
same,half-life elimination in whole blood,[22]; human,approximately 17 d
same,t1/2 in humans,[22]; human,195 to 251 h
same,total radioactive half-life,[22],804 h
same,LD50,[23],1342 mg/kg
same,IC50,CYP1A2,> 50 µM
same,IC50,CYP2C9,> 50 µM
same,IC50,CYP2C19,> 50 µM
same,IC50,CYP3A4,42.9 µM
same,IC50,CYP2D6,2.23 µM
"CCN(CC)CCOc1ccc2c(c1)C(=O)c1cc(OCCN(CC)CC)ccc1-2 [Tilorone, tilorone dihydrochloride]",IFN-α/β levels,cytokines and chemokines,below the LLOD
same,cytokine/chemokine protein concentrations over vehicle-treated and naïve mice,cytokines and chemokines,statistically significant increase in observed protein concentrations
CCN(CC)CCCC(C)Nc1ccnc2cc(Cl)ccc12 (stereo not shown) [chloroquine],survival rate,EBOV [24],90%
same,activity in guinea pig studies,EBOV [25],inactive
B1,survival rates in clinical trial,EBOV [26],higher survival rates than ZMapp and remdesivir

# Source: PMC6894882 (PLoS Neglected Tropical Diseases, 2019)
